Values of other authors in patent publication US6515019B2, “Methods of providing symptomatic and prophylactic treatment for medical and neurological conditions” (priority 1996, dated 2003).

Key:
[1] = patients on felbamate monotherapy (Faught E., Neurology 43:688-692, 1993)
[2] = test system: neuronal cell death; conditions: administered post-hoc; animal models of ischemia (Wasterlain 1993; Shuaib 1996; Wasterlain 1996)
[3] = add-on therapy in partial epilepsy in children (Carmant J., Pediatr 125:481-486, 1994)

Weight loss [1]: 4-5%
Compound: NC(=O)OCC(COC(N)=O)c1ccccc1 [Felbamate, 2-phenyl-1,3-propanediol dicarbamate]
prevention of neuronal cell death [2]: effective in preventing neuronal cell death
weight loss course [3]: transient and returned to normal after twenty weeks
